# Results reported in patent US4216128A, “Enkephalin analogues” (American Home Products Corporation, priority 1979, dated 1980).
# Non-standard residues stand in square brackets, D forms with d. Residues, ends and D or L forms follow the SMILES beside them.
# What was measured:
# opiate receptor [1] = test: relative displacement potency, procedure of Chang et al.; type: binding; details: relative to morphine
# CF-1 mice = test: phenylbenzoquinone induced writhing test (analgesia); type: in vivo
# [2] = peripheral administration; cited from earlier work
# [3] = intravenous administration; cited from earlier work
# rats = details: injection in the brain ventricle, fully reversible by naloxone; cited from earlier work
# mouse vas deferens = details: cited from earlier work
# guinea pig ileum = details: cited from earlier work
# opiate receptor [4] = details: brain homogenates; cited from earlier work
# [5] = Coy et al.; cited from earlier work
# [6] = intracerebroventricular; cited from earlier work
compound,measurement,setting,value
"CN[C@@H](Cc1ccc(O)cc1)C(=O)N[C@H](CS)C(=O)NCC(=O)N(C)[C@@H](Cc1ccccc1)C(=O)N[C@H](CC(N)=O)C(N)=O [Example 4, N-Methyl-L-tyrosyl-D-cysteinyl-glycyl-N-methyl-L-phenylalanyl-D-asparagine amide]",relative displacement potency,opiate receptor [1],two
same,percent analgesia after oral administration,"CF-1 mice; oral dose of 50 mg/kg, 30 minutes",10%
same,"ED50 (analgesia, absence of writhing)","CF-1 mice; subcutaneous administration, at 15 minutes, mice",0.64 (0.29-1.4) mg/kg
CSCC[C@H](NC(=O)[C@H](Cc1ccccc1)NC(=O)CNC(=O)[C@@H](C)NC(=O)[C@@H](N)Cc1ccc(O)cc1)C(N)=O [Tyr-D-Ala-Gly-Phe-Met-amide],activity when administered peripherally,[2],inactive
CSCC[C@@H](NC(=O)[C@@H](N)Cc1ccc(O)cc1)C(=O)NCC(=O)N[C@@H](Cc1ccccc1)C(=O)N1CCC[C@H]1C(N)=O [Tyr-D-Met-Gly-Phe-Pro-NH2] (H-Y[dM]GFP-NH2),antinociceptive potency relative to morphine,[3],5.5 times more potent than morphine
"CC(C)C[C@H](NC(=O)[C@H](Cc1ccccc1)NC(=O)CNC(=O)CNC(=O)[C@@H](N)Cc1ccc(O)cc1)C(=O)O [leucine-enkephalin, H-Tyr-Gly-Gly-Phe-Leu-OH]",analgesia,rats,profound analgesia
"CSCC[C@H](NC(=O)[C@H](Cc1ccccc1)NC(=O)CNC(=O)CNC(=O)[C@@H](N)Cc1ccc(O)cc1)C(=O)O [methionine-enkephalin, H-Tyr-Gly-Gly-Phe-Met-OH]",analgesia,rats,profound analgesia
same,block of electrically evoked contractions,mouse vas deferens,block electrically evoked contractions
same,block of electrically evoked contractions,guinea pig ileum,block electrically evoked contractions
same,inhibition of stereospecific receptor binding of 3H-naloxone,opiate receptor [4],inhibit
D-Met^5 enkephalin,activity relative to Met enkephalin,[5],one tenth
Tyr-D-Ala-Gly-Phe-D-Leu,activity when administered intracerebroventricularly,[6],activity
